Assay results published in ChEMBL document CHEMBL1136177, “Neuroprotective or neurotoxic activity of 1-methyl-1,2,3,4-tetrahydroisoquinoline and related compounds” (Bioorg Med Chem Lett, 2003).

Assay: Neurotoxicity against human neuroblastoma SH-SY5Y cells using MTT dye conversion assay

CC1NCCc2cc(O)ccc21 (stereo not drawn) and CC1NCCc2ccc(O)cc21 (stereo not drawn) are within 1.5-fold of each other in CC50: 3630 µM for the first, 4150 µM for the second.

CC1NCCc2c(O)cccc21 (stereo not drawn) and COc1cccc2c1CCNC2C (stereo not drawn) are within 1.5-fold of each other in CC50: 3380 µM for the first, 2450 µM for the second.

First: COc1ccc2c(c1)C(C)NCC2 (stereo not drawn)
Second: COc1ccc2c(c1)CCNC2C (stereo not drawn)
The CC50 of the first is 2-fold lower: 1390 µM for the first, 2790 µM for the second.

Compared with COc1cc2c(cc1OC)C(C)NCC2 (stereo not drawn), CC1NCCc2cc(O)c(O)cc21 (stereo not drawn) is 80-fold lower in CC50: 2730 µM for the first, 34 µM for the second.
